The values below come from publication PMC7156612, “Olinciguat, an Oral sGC Stimulator, Exhibits Diverse Pharmacology Across Preclinical Models of Cardiovascular, Metabolic, Renal, and Inflammatory Disease” (Frontiers in Pharmacology, 2020).

The test system of series [1] is obese ZSF1 rats. Details: method as in Bilan et al., 2011. To be noted: 8-week old obese ZSF1 rats, enalapril 60 mg/kg/day in drinking water for 24 weeks; ref Bilan et al., 2011; cited from earlier work.
Series [2] concerns obese ZSF1 rats. The series can be described thus: ZSF1 rat model of metabolic syndrome and diabetic nephropathy. Format: in vivo. The protocol:
Lean (n=8, 370–420 g, 15 weeks) and obese (n=32, 500–630 g, 15 weeks) male ZSF1 rats were studied. Rats were treated with enalapril to reflect standard of care drug treatment for patients with diabetic kidney disease. Dose modeling based on allometric scaling relationships estimated that a 10 mg/day enalapril dose in humans (within usual dose range of 10–40 mg based on prescribing information) corresponds to 1 mg/kg/day in rats ([Nair and Jacob, 2016]). To measure hemodynamics in freely moving animals, ZSF1 obese rats were implanted with telemetry transmitters (HD-S10, Data Sciences International) at 9–10 weeks of age, as described above.
The study included a 10-day pretreatment period and a 10-week treatment period. There were five groups of rats in the study. The lean ZSF1 control group (lean control, n=8) and one obese group (obese control, n=8) were fed normal chow and drinking water throughout the 10-day pretreatment period and the 10-week treatment period. Three groups of obese rats were treated with enalapril in drinking water (equivalent to 3 mg/kg/day) throughout the 10-day pretreatment period and the 10-week treatment period. During the treatment period, these enalapril-treated obese rats were administered normal chow (ENP, n=8) or chow containing olinciguat targeting the dose of 10 mg/kg/day (ENP+OLI10, n=8) or 30 mg/kg/day (ENP+OLI30, n=8). Blood and 24-h urine samples were obtained from all animals at baseline (immediately prior to initiation of enalapril treatment), the end of the 10-day pretreatment period (Day 10) and at week 5 and week 10 of the treatment period. Plasma samples were obtained from all olinciguat-treated animals for measurement of olinciguat exposure at week 10. During week 9 of treatment, rats were fasted for 16 h overnight prior to determination of fasting blood glucose using the AlphaTRAK (Abbott) glucose monitoring system. Body weight was measured once every other week. At the end of the study, rats were anesthetized and perfused via the left ventricle with heparinized PBS (1 U/ml heparin) containing IBMX (1 mM). Organs were collected and weighed, and plasma was collected in EDTA tubes. For serum, blood was collected in serum separator tubes, maintained at room temperature for at least 30 min and centrifuged at 6,000 rpm for 10 min, and then stored at −80°C until analysis. Urine and serum samples were analyzed using the Randox Daytona Clinical Chemistry Analyzer (Randox, Kearneysville, WV) for urine protein, serum cholesterol and serum triglycerides. All measurements were performed in accordance with manufacturer's instructions.
For histology, one kidney from each rat was fixed in 10% formalin, then embedded in paraffin. Slides were prepared and stained with hematoxylin and eosin (H&E) and periodic-acid Schiff (PAS) for light microscopic analysis. Kidney sections were evaluated for the presence of glomerular pathology, tubular damage, interstitial inflammation, interstitial fibrosis, and vascular alterations. Severity-based scoring based on these evaluations was performed by a trained pathologist.
For the ZSF1 experiment, data are expressed as mean ± standard error of the mean (SEM).
In the ZSF1 study, change from baseline NT-proBNP, week 10 heart, kidney, and liver weight, urine volume, cholesterol, triglycerides, glucose, and renal histopathology sum score were analyzed by one-way ANOVA corrected for multiple comparisons using Tukey's method. Statistically significant differences vs the obese control and vs the ENP group are indicated in the results. MAP and UPE were analyzed by an ordinary two-way ANOVA with timepoint and treatment group as independent variables, followed by a Tukey's multiple comparisons test. Within each treatment group, significant differences vs baseline are indicated in the results. At week 10, statistically significant differences vs the obese control and vs the ENP control are also indicated in the results.

For series [3], the system named is vascular smooth muscle cells (VSMC) from rat aorta. The series is described as follows: Rat aorta vascular smooth muscle cell proliferation (3H-thymidine incorporation). The format is cell-based. To be noted: tadalafil alone at or below 10 µM; 5% FBS, 10 µM DETA. The procedure:
We explored the concentration response of olinciguat, tadalafil, and olinciguat in the presence of 1 μM tadalafil on rat aorta vascular smooth muscle proliferation, Tadalafil was used because it is a once-daily PDE5 inhibitor that, like the three-times-daily PDE5 inhibitor sildenafil, is approved for treatment of PAH and ED. Vascular smooth muscle cells (VSMC) from rat aorta (Lonza, R-ASM-580) were plated into a 96-well plate at 15,000 cells per well in DMEM:F12 containing 20% FBS and GA-1000 ([Gentamicin, Amphotericin B], Lonza, CC-40863) for 24 h at 37°C. Medium was removed and cells were washed once with 100 μl DMEM:F12 before adding 100 μl of DMEM:F12 and incubating for 24 h to induce quiescence. Cells were then cultured for 24 h in DMEM:F12 supplemented with 5% FBS, in the presence of test articles (vehicle, olinciguat, tadalafil) with 10 µM DETA. In the last 6 h, 0.2 μCi of ^3H-thymidine (American Radiolabeled Chemicals, ART 0178A) was added to each well to measure DNA synthesis by thymidine incorporation. Cells were washed once with HBSS and then trypsinized and transferred into FB filter plates (Millipore, MADVNOB). A rapid-filtration technique using a filtration apparatus (Millipore, MAVM0960R) with vacuum aspiration was used to harvest and rinse labeled cells (6× with 0.2 ml of chilled water). The radioactivity bound to the filters was counted with 80 µl of liquid scintillant (PerkinElmer, UltraGold MV, 6013159) in a scintillation counter (Perkin Elmer Microbeta instrument).
In the vascular smooth muscle cell proliferation experiment, a comparison between the IC50's for olinciguat alone vs oliniciguat in the presence of 1 µM tadalafil was performed by a two-tailed t-test using Log EC50 best fit values and SEs determined from a four-parameter nonlinear curve fit, assuming n=60 degrees of freedom.
(Incorporation of labelled thymidine or its analogues reports DNA synthesis.)

Details of series [4]: method as in Forgue et al., 2006. To be noted: healthy volunteers, after 10 days of dosing at 20 mg QD; ref Forgue et al., 2006; read-out: Cmax plasma concentration; cited from earlier work.
Series [5] deals with pulmonary artery smooth muscle from healthy subjects. Details: method as in Yamamura et al., 2017. To be noted: ref Yamamura et al., 2017; cited from earlier work.
The test system of series [6] is pulmonary artery smooth muscle from idiopathic pulmonary arterial hypertension (PAH) patients. Details: method as in Yamamura et al., 2017. To be noted: ref Yamamura et al., 2017, read-out: IC50, inhibition of proliferation; cited from earlier work.
Details of series [7]: method as in Tobin et al., 2018. Conditions: ref Tobin et al., 2018; cited from earlier work.

pIC50: −log10 of the molar value. Entries after “also recorded” stand apart in the source; their conditions may differ.

Regarding `CCOC(=O)[C@H](CCc1ccccc1)N[C@@H](C)C(=O)N1CCC[C@H]1C(=O)O` [ENP, reference compound], the “reduction in MAP” value with obese ZSF1 rats [1] is recorded as ~ 50 mmHg. In addition, in the series on obese ZSF1 rats [2] (obese ZSF1, enalapril 3 mg/kg/day in drinking water, obese control 122 ± 1), the “MAP at Week 10” value amounted to 111 ± 1 mmHg. In the series on obese ZSF1 rats [2] (obese ZSF1, enalapril 3 mg/kg/day, week 9, obese control 279.4 ± 36.5), this molecule returned a fasting blood glucose of 276.5 ± 30.9 mg/dL. The “change from baseline NT-proBNP” value with obese ZSF1 rats [2] (obese ZSF1, enalapril 3 mg/kg/day, baseline to end of treatment, obese control +86 ± 22) was “+44 ± 28 pg/ml”. The total kidney weight with obese ZSF1 rats [2] (obese ZSF1, enalapril 3 mg/kg/day, obese control 9.7 ± 0.2, lean 7.4 ± 0.07) came out at 9.5 ± 0.3 g/kg BW. For the same molecule, in the series with obese ZSF1 rats [2] (obese ZSF1, enalapril 3 mg/kg/day, obese control 14.6 ± 0.2, p=0.025 vs obese control), the “renal pathology sum score” value is listed as 12.2 ± 0.4. Moreover, the liver weight in the series with obese ZSF1 rats [2] (obese ZSF1, enalapril 3 mg/kg/day, obese control 72.0 ± 1.9) stood at 70.5 ± 1.1 g/kg BW. For the same molecule, the “serum cholesterol at week 10” value in the series on obese ZSF1 rats [2] (obese ZSF1, enalapril 3 mg/kg/day, obese control 428.6 ± 12.7) came to 383 ± 9.8 mg/dL. In addition, in the series with obese ZSF1 rats [2] (obese ZSF1, enalapril 3 mg/kg/day, obese control 4913 ± 487.1), the “serum triglycerides at week 10” value was found to be 3850 ± 326.0 mg/dL. Further, the “increase of proteinuria over 10-week treatment period” value in the series with obese ZSF1 rats [2] (obese ZSF1, enalapril alone 3 mg/kg/day, obese controls 153%) was 168%. Also, the “kidney weight, percent greater than in the lean control group” value in the series with obese ZSF1 rats [2] (obese ZSF1 treated with enalapril) stood at 28%.

`CN1CC(=O)N2[C@H](c3ccc4c(c3)OCO4)c3[nH]c4ccccc4c3C[C@@H]2C1=O` [tadalafil]: in series [3], the “inhibition of VSMC proliferation by tadalafil alone” value was “did not inhibit vascular smooth muscle cell proliferation; also recorded: did not inhibit VSMC proliferation”. In series [4], the Cmax is 1 µM. Moreover, in series [5], the effect on proliferation result is recorded as “no effect”. Also, the pIC50 in series [6] is 5.35.

Turning to `OC(CNc1nc(-c2cc(-c3ccon3)n(Cc3ccccc3F)n2)ncc1F)(C(F)(F)F)C(F)(F)F` [praliciguat], the volume of distribution in series [7] is 10.5 L/kg.
